According to patent US20260256792A1, “TREATMENT OF CHRONIC SPONTANEOUS URTICARIA BY ADMINISTERING (R)-2-[3-[4-AMINO-3-(2-FLUORO-4-PHENOXY-PHENYL)PYRAZOLO[3,4-D]PYRIMIDIN-1-YL]PIPERIDINE-1-CARBONYL]-4-METHYL-4-[4-(OXETAN-3-YL)PIPERAZIN-1-YL]PENT-2-ENENITRILE” (priority 2023, published 2026):

Test system: moderate-to-severe chronic spontaneous urticaria (CSU)
Test: Phase 2 CSU study: itch severity score over 7 days (ISS7)
Assay type: in vivo, human
Details: for ISS7 Median / ISS7 Mean (SD): End of Study
Text: The study comprises a 12 week, randomized, double-blind, placebo-controlled, multi-center, dose-ranging efficacy and safety phase, followed by a 40 week open label extension (OLE) phase (see FIG. 1). The study consists of three phases and an optional OLE phase. […] Clinically, CSU is characterized by the spontaneous and recurrent appearance of pruritic hives. The proposed primary endpoints were the UAS7 at Week 12 in EU and EU reference countries and the ISS7 in the US. Regardless of where a participant was from, all assessments were the same. The UAS7 score is a composite score containing both the HSS7 and the ISS7. This allowed a global assessment of the two key components of urticaria: hives and itch. […] The UAS is a validated PRO measure. […] The daily UAS scores range from 0 to 6 point/day. […] Patients were to complete the UAS using the e-diary. […] The following secondary endpoints were to be analyzed using the same approach as for the primary endpoint: • Change from baseline in UAS7 at Week 4 • Change from baseline in UAS7 at Week 12 (for US and US reference countries) • Change from baseline in ISS7 at Week 12 (except US and US reference countries) • Change from baseline in HSS7 at Week 12

[1] = 400 mg TID, Prior Omalizumab Use
[2] = ITT Population, 400 mg BID, Week 2
[3] = ITT Population, 400 mg QPM, Week 3
[4] = ITT Population, 400 mg QPM, Week 5
[5] = ITT Population, 400 mg TID, Week 1
[6] = ITT Population, 400 mg TID, Week 12
[7] = ITT population, 400 mg BID, Week 1
[8] = ITT population, 400 mg BID, Week 3
[9] = ITT population, 400 mg BID, Week 4
[10] = ITT population, 400 mg BID, Week 5
[11] = ITT population, 400 mg BID, Week 6
[12] = ITT population, 400 mg BID, Week 7
[13] = ITT population, 400 mg BID, Week 8
[14] = ITT population, 400 mg BID, Week 9
[15] = ITT population, 400 mg BID, Week 10
[16] = ITT population, 400 mg BID, Week 11
[17] = ITT population, 400 mg BID, Week 12
[18] = ITT population, 400 mg QPM, Week 1
[19] = ITT population, 400 mg QPM, Week 2

CC(C)(C=C(C#N)C(=O)N1CCC[C@@H](n2nc(-c3ccc(Oc4ccccc4)cc3F)c3c(N)ncnc32)C1)N1CCN(C2COC2)CC1 [rilzabrutinib, (R)-2-[3-[4-amino-3-(2-fluoro-4-phenoxy-phenyl)pyrazolo[3,4-d]pyrimidin-1-yl]piperidine-1-carbonyl]-4-methyl-4-[4-(oxetan-3-yl)piperazin-1-yl]pent-2-enenitrile]
ISS7 Median (400 mg QPM, Omalizumab-Naïve): 2.00 | ISS7 Mean (SD) (400 mg TID, Omalizumab-Naïve): 11.40 (6.11) | ISS7 Mean (SD) [1]: 9.50 (6.36) | ISS7 Median [1]: 9.50 | Imputed non-responder n (%) (ISS7 reduction of 5 points or more) [2]: 2 (4.9) n (%) | Non-responder n (%) (ISS7 reduction of 5 points or more) [2]: 19 (46.3) n (%) | OR for rilzabrutinib vs. placebo (ISS7 reduction of 5 points or more) [2]: 2.693 | RRD (%) for rilzabrutinib vs. placebo (ISS7 reduction of 5 points or more) [2]: 23.6% | Responder n (%) (ISS7 reduction of 5 points or more) [2]: 22 (53.7) n (%) | Imputed non-responder n (%) (ISS7 reduction of 5 points or more) [3]: 0 n (%) | Non-responder n (%) (ISS7 reduction of 5 points or more) [3]: 20 (52.6) n (%) | OR for rilzabrutinib vs. placebo (ISS7 reduction of 5 points or more) [3]: 1.881 | RRD (%) for rilzabrutinib vs. placebo (ISS7 reduction of 5 points or more) [3]: 15.9% | Responder n (%) (ISS7 reduction of 5 points or more) [3]: 18 (47.4) n (%) | Imputed non-responder n (%) (ISS7 reduction of 5 points or more) [4]: 2 (5.3) n (%) | Non-responder n (%) (ISS7 reduction of 5 points or more) [4]: 21 (55.3) n (%) | OR for rilzabrutinib vs. placebo (ISS7 reduction of 5 points or more) [4]: 0.781 | RRD (%) for rilzabrutinib vs. placebo (ISS7 reduction of 5 points or more) [4]: 6.2% | Responder n (%) (ISS7 reduction of 5 points or more) [4]: 17 (44.7) n (%) | Imputed non-responder n (%) (ISS7 reduction of 5 points or more) [5]: 0 n (%) | Non-responder n (%) (ISS7 reduction of 5 points or more) [5]: 14 (34.1) n (%) | OR for rilzabrutinib vs. placebo (ISS7 reduction of 5 points or more) [5]: 6.428 | RRD (%) for rilzabrutinib vs. placebo (ISS7 reduction of 5 points or more) [5]: 42.3% | Responder n (%) (ISS7 reduction of 5 points or more) [5]: 27 (65.9) n (%) | Imputed non-responder n (%) (ISS7 reduction of 5 points or more) [6]: 11 (26.8) n (%) | Non-responder n (%) (ISS7 reduction of 5 points or more) [6]: 18 (43.9) n (%) | OR for rilzabrutinib vs. placebo (ISS7 reduction of 5 points or more) [6]: 1.371 | RRD (%) for rilzabrutinib vs. placebo (ISS7 reduction of 5 points or more) [6]: 7.9% | Responder n (%) (ISS7 reduction of 5 points or more) [6]: 23 (56.1) n (%) | Imputed non-responder n (%) (ISS7 reduction of 5 points or more) [7]: 1 (2.4) n (%) | Non-responder n (%) (ISS7 reduction of 5 points or more) [7]: 21 (51.2) n (%) | OR for rilzabrutinib vs. placebo (ISS7 reduction of 5 points or more) [7]: 3.262 | RRD (%) for rilzabrutinib vs. placebo (ISS7 reduction of 5 points or more) [7]: 25.5% | Responder n (%) (ISS7 reduction of 5 points or more) [7]: 20 (48.8) n (%) | Imputed non-responder n (%) (ISS7 reduction of 5 points or more) [8]: 1 (2.4) n (%) | Non-responder n (%) (ISS7 reduction of 5 points or more) [8]: 19 (46.3) n (%) | OR for rilzabrutinib vs. placebo (ISS7 reduction of 5 points or more) [8]: 2.451 | RRD (%) for rilzabrutinib vs. placebo (ISS7 reduction of 5 points or more) [8]: 21.5% | Responder n (%) (ISS7 reduction of 5 points or more) [8]: 22 (53.7) n (%) | Imputed non-responder n (%) (ISS7 reduction of 5 points or more) [9]: 4 (9.8) n (%) | Non-responder n (%) (ISS7 reduction of 5 points or more) [9]: 19 (46.3) n (%) | RRD (%) for rilzabrutinib vs. placebo (ISS7 reduction of 5 points or more) [9]: 5.6% | Responder n (%) (ISS7 reduction of 5 points or more) [9]: 22 (53.7) n (%) | Imputed non-responder n (%) (ISS7 reduction of 5 points or more) [10]: 5 (12.2) n (%) | Non-responder n (%) (ISS7 reduction of 5 points or more) [10]: 18 (43.9) n (%) | RRD (%) for rilzabrutinib vs. placebo (ISS7 reduction of 5 points or more) [10]: 2.7% | Responder n (%) (ISS7 reduction of 5 points or more) [10]: 23 (56.1) n (%) | Imputed non-responder n (%) (ISS7 reduction of 5 points or more) [11]: 4 (9.8) n (%) | Non-responder n (%) (ISS7 reduction of 5 points or more) [11]: 20 (48.8) n (%) | RRD (%) for rilzabrutinib vs. placebo (ISS7 reduction of 5 points or more) [11]: 2.7% | Responder n (%) (ISS7 reduction of 5 points or more) [11]: 21 (51.2) n (%) | Imputed non-responder n (%) (ISS7 reduction of 5 points or more) [12]: 4 (9.8) n (%) | Non-responder n (%) (ISS7 reduction of 5 points or more) [12]: 19 (46.3) n (%) | OR for rilzabrutinib vs. placebo (ISS7 reduction of 5 points or more) [12]: 1.258 | RRD (%) for rilzabrutinib vs. placebo (ISS7 reduction of 5 points or more) [12]: 5.5% | Responder n (%) (ISS7 reduction of 5 points or more) [12]: 22 (53.7) n (%) | Imputed non-responder n (%) (ISS7 reduction of 5 points or more) [13]: 5 (12.2) n (%) | Non-responder n (%) (ISS7 reduction of 5 points or more) [13]: 16 (39.0) n (%) | OR for rilzabrutinib vs. placebo (ISS7 reduction of 5 points or more) [13]: 1.388 | RRD (%) for rilzabrutinib vs. placebo (ISS7 reduction of 5 points or more) [13]: 8.3% | Responder n (%) (ISS7 reduction of 5 points or more) [13]: 25 (61.0) n (%) | Imputed non-responder n (%) (ISS7 reduction of 5 points or more) [14]: 9 (22.0) n (%) | Non-responder n (%) (ISS7 reduction of 5 points or more) [14]: 19 (46.3) n (%) | OR for rilzabrutinib vs. placebo (ISS7 reduction of 5 points or more) [14]: 1.233 | RRD (%) for rilzabrutinib vs. placebo (ISS7 reduction of 5 points or more) [14]: 5.6% | Responder n (%) (ISS7 reduction of 5 points or more) [14]: 22 (53.7) n (%) | Imputed non-responder n (%) (ISS7 reduction of 5 points or more) [15]: 10 (24.4) n (%) | Non-responder n (%) (ISS7 reduction of 5 points or more) [15]: 22 (53.7) n (%) | OR for rilzabrutinib vs. placebo (ISS7 reduction of 5 points or more) [15]: 0.786 | RRD (%) for rilzabrutinib vs. placebo (ISS7 reduction of 5 points or more) [15]: −6.2% | Responder n (%) (ISS7 reduction of 5 points or more) [15]: 19 (46.3) n (%) | Imputed non-responder n (%) (ISS7 reduction of 5 points or more) [16]: 9 (22.0) n (%) | Non-responder n (%) (ISS7 reduction of 5 points or more) [16]: 19 (46.3) n (%) | OR for rilzabrutinib vs. placebo (ISS7 reduction of 5 points or more) [16]: 0.837 | RRD (%) for rilzabrutinib vs. placebo (ISS7 reduction of 5 points or more) [16]: −4.5% | Responder n (%) (ISS7 reduction of 5 points or more) [16]: 22 (53.7) n (%) | Imputed non-responder n (%) (ISS7 reduction of 5 points or more) [17]: 14 (34.1) n (%) | Non-responder n (%) (ISS7 reduction of 5 points or more) [17]: 21 (51.2) n (%) | OR for rilzabrutinib vs. placebo (ISS7 reduction of 5 points or more) [17]: 1.063 | RRD (%) for rilzabrutinib vs. placebo (ISS7 reduction of 5 points or more) [17]: 1.6% | Responder n (%) (ISS7 reduction of 5 points or more) [17]: 20 (48.8) n (%) | Imputed non-responder n (%) (ISS7 reduction of 5 points or more) [18]: 0 n (%) | Non-responder n (%) (ISS7 reduction of 5 points or more) [18]: 25 (65.8) n (%) | OR for rilzabrutinib vs. placebo (ISS7 reduction of 5 points or more) [18]: 1.855 | RRD (%) for rilzabrutinib vs. placebo (ISS7 reduction of 5 points or more) [18]: 12.7% | Responder n (%) (ISS7 reduction of 5 points or more) [18]: 13 (34.2) n (%) | Imputed non-responder n (%) (ISS7 reduction of 5 points or more) [19]: 0 n (%) | Non-responder n (%) (ISS7 reduction of 5 points or more) [19]: 23 (60.5) n (%) | OR for rilzabrutinib vs. placebo (ISS7 reduction of 5 points or more) [19]: 1.662 | Responder n (%) (ISS7 reduction of 5 points or more) [19]: 15 (39.5) n (%) | Imputed non-responder n (%) (ISS7 reduction of 5 points or more) (ITT population, 400 mg QPM, Week 4): 1 (2.6) n (%)
